Test results taken from US6376427B1, “Herbicidal compositions” (Sumitomo Chemical Company, Limited, priority 1998, dated 2002).

Legend:
wheat = assay: Test Example 1: safety to wheat (phytotoxicity); assay type: in vivo, wheat (Triticum aestivum); conditions: dosage 10 g/ha; sprayed on 14-day wheat; examined 5 days after application
Experimental: (§1) Plastic pots each having an area of 26.5×19cm^2 and a depth of 10 cm were filled with upland soil, and then seeded with wheat and giant foxtail. The wheat was grown for 14 days and t he giant foxtail was grown for 23 days in a greenhouse. An emulsifiable concentrate compound A which had been obtained by well mixing 10 parts of compound A, 14 parts of polyoxyethylene styryl phenyl ether, 6 parts of calcium dodecylbenzenesulfonate, 35 parts of xylene, and 35 parts of cyclohexanone, an emulsifiable concentrate of flufenacet which had been obtained by well mixing 10 parts of flufenacet, 14 parts of polyoxyethylene styryl phenyl ether, 6 parts of calcium dodecylbenzenesulfonate, 35 parts of xylene, and 35 parts of cyclohexanone, and a mixture of the emulsifiable concentrate of compound A and the emulsifiable concentrate of flufenacet were independently diluted in their prescribed amounts with water. Each dilution was uniformly sprayed over the plants with a small sprayer. After the application, the plants were grown in the greenhouse for 5 days, and the herbicidal activity and safety to wheat were then examined.

giant foxtail [1] = assay: Test Example 2: post-emergence foliar spray, herbicidal activity; assay type: in vivo, giant foxtail (Setaria faberi); conditions: sprayed on 22-day plants, examined 5 days after application, index 0 to 10
Experimental: (§2) Plastic pots each having an area of 26.5×19 cm^2 and a depth of 7 cm were filled with upland soil, and then seeded with soybean, corn and giant foxtail. The corn was grown for 13 days, and the soybean and giant foxtail were grown for 22 days in a greenhouse. An emulsifiable concentrate compound A which had been obtained by well mixing 10 parts of compound A, 14 parts of polyoxyethylene styryl phenyl ether, 6 parts of calcium dodecylbenzenesulfonate, 35 parts of xylene, and 35 parts of cyclohexanone, an emulsifiable concentrate of flufenacet which had been obtained by well mixing 10 parts of flufenacet, 14 parts of polyoxyethylene styryl phenyl ether, 6 parts of calcium dodecylbenzenesulfonate, 35 parts of xylene, and 35 parts of cyclohexanone, and a mixture of the emulsifiable concentrate of compound A and the emulsifiable concentrate of flufenacet were independently diluted in their prescribed amounts with water. Each dilution was uniformly sprayed over the plants with a small sprayer. After the application, the plants were grown in the greenhouse for 5 days, and the herbicidal activity and safety to soybean and corn were then examined.

giant foxtail [2] = assay: Test Example 1: post-emergence foliar spray, herbicidal activity; assay type: in vivo, giant foxtail (Setaria faberi); conditions: sprayed on 23-day plants, examined 5 days after application, index 0 to 10
Experimental: as §1

soybean = assay: Test Example 2: safety to soybean (phytotoxicity); assay type: in vivo; conditions: dosage 40 g/ha; sprayed on 22-day soybean; examined 5 days after application
Experimental: as §2

corn = assay: Test Example 2: safety to corn (phytotoxicity); assay type: in vivo; conditions: dosage 40 g/ha; sprayed on 13-day corn; examined 5 days after application
Experimental: as §2

## CCOC(=O)COc1cc(-n2ncc(C(F)(F)F)c(C)c2=O)c(F)cc1Cl [Compound A]
wheat
  Phytotoxicity Wheat: No harm
Giant foxtail [1]; dosage 40 g/ha
  Herbicidal activity Giant foxtail: 4
Giant foxtail [2]; dosage 10 g/ha
  Herbicidal activity Giant foxtail: 3
soybean
  Phytotoxicity Soybean: No harm
corn
  Phytotoxicity Corn: No harm

## CC(C)N(C(=O)COc1nnc(C(F)(F)F)s1)c1ccc(F)cc1 [Flufenacet, 4-fluoro-N-isopropyl-2-(5-trifluoromethyl-,1,3,4-thiadiazol-2-yloxy)acetanilide, reference compound]
Giant foxtail [1]; dosage 400 g/ha
  Herbicidal activity Giant foxtail: 2
Giant foxtail [2]; dosage 240 g/ha
  Herbicidal activity Giant foxtail: 2
